Reference: US11083720B2, “Indazole inhibitors of fructokinase (KHK) and methods of use in treating KHK-mediated disorders or diseases” (REGENTS OF THE UNIVERSITY OF COLORADO, A BODY CORPORATE, priority 2017, dated 2021)
pIC50: −log10 of the molar value.

The molecules below were run against KHK-C (Homo sapiens (Human), UniProt P50053) (assay: 3-step coupled-enzyme KHK assay (KHK, PK, LDH; NADH disappearance)). Conditions: recombinant KHK-C, 1 mM fructose, A340 at 37° C.
Format: biochemical
Description: Specific high-throughput screening assays were developed for KHK-C and KHK-A using recombinant proteins. Purified human recombinant KHK-C and KHK-A were produced using the Bio-Rad Profinity eXact Fusion-Tag System and Profinia protein purification instrument. The assays consist of a 3-step, coupled-enzyme process involving fructokinase (KHK), pyruvate kinase (PK) and lactate dehydrogenase (LDH). ^1,2 The disappearance of NADH is measured kinetically by A340 at 37° C. The enzymatic assay was carried out in a total reaction volume of 200 ul containing 50 mM PIPES, 6 mM MgCl2, 100 mM KCl, 100 uM-5 mM ATP, 2 mM phosphoenolpyruvate, 0.3 mM NADH, 15 U of pyruvate kinase, 15 U of lactate dehydrogenase, and 75-1000 ng KHKC. 1 mM fructose was added to the reactions, except for the no fructose controls which utilized water. The high-throughput assay was used to identify inhibitors that have an IC50 value <5 μM for KHK-C.^5 The '559 pub also sets forth a KHK assay for testing inhibition activity of potential KHK inhibitors.

KHK-C, sequence (P50053 whole entry): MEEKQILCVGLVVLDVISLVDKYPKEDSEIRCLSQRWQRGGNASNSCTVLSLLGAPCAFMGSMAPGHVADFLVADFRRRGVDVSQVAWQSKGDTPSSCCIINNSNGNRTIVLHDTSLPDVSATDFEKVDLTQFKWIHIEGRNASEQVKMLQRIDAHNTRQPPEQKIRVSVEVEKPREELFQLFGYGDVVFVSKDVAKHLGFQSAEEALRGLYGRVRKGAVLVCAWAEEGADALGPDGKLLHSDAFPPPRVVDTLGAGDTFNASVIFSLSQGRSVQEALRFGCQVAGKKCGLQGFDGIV

| SMILES | pIC50 |
| --- | --- |
| Cc1cccc(-n2ncc3ccc(-c4ccnc(N)c4)cc32)c1 [Compound C-5, 4-(1-(m-tolyl)-1H-indazol-6-yl)pyridin-2-amine] | 6.55 |
| O=C(NC1CCNCC1)c1ccc2cnn(-c3ccccc3)c2c1 [Compound C-26, 1-phenyl-N-(piperidin-4-yl)-1H-indazole-6-carboxamide] | 5.64 |
| Nc1cc(-c2ccc3c(C4CC4)nn(-c4ccccc4)c3c2)ccn1 [Compound C-28, 4-(3-cyclopropyl-1-phenyl-1H-indazol-6-yl)pyridin-2-amine] | 6.15 |
| Cc1cccc(-n2ncc3ccc(C(=O)NC4CNC4)cc32)c1 [Compound C-33, N-(azetidin-3-yl)-1-(m-tolyl)-1H-indazole-6-carboxamide] | 5.64 |
| Cc1cccc(-n2ncc3ccc(NC(=O)C4CCN4)cc32)c1 (stereo not shown) [Compound C-72] | 5.92 |

Other lines, results leading:

| pIC50 | SMILES |
| --- | --- |
| 6.10 | Cc1cccc(-n2ncc3ccc(C(=O)NC4CCNCC4)cc32)c1 [Compound C-32, N-(piperidin-4-yl)-1-(m-tolyl)-1H-indazole-6-carboxamide] |
| 6.24 | O=C(NC1CNC1)c1ccc2cnn(-c3ccccc3)c2c1 [Compound C-34, N-(azetidin-3-yl)-1-phenyl-1H-indazole-6-carboxamide] |
| 6.29 | Cc1cccc(-n2ncc3ccc(NC(=O)C4CNC4)cc32)c1 [Compound C-25, N-(1-(m-tolyl)-1H-indazol-6-yl)azetidine-3-carboxamide] |

Same assay, conditions: recombinant KHK-C, 1 mM fructose, A340 at 37° C.; heading: IC50 Result

| pIC50 | SMILES |
| --- | --- |
| 5.93 | Nc1cc(-c2ccc3cnn(-c4ccccc4)c3c2)ccn1 [Compound C-1, 4-(1-phenyl-1H-indazol-6-yl)pyridin-2-amine] |

What follows are molecules tested on aldoB−/− KO mice (assay: Fructose-induced hypoglycemia in Aldolase B Knockout Mice). Conditions: 25 mg/kg IP 30 min before and repeated at oral fructose gavage (1.5 g/kg), glucose over 90 minutes.
Format: in vivo
From the text: Example 12 describes fructokinase inhibition results and fructose-induce hypoglycemia prevention results obtained from in vivo assay in Aldolase B Knockout Mice. Hereditary Fructose intolerance is a rare genetic disease due to deficiency of aldolase B that is associated with over activation of KHK-C. One of the key features in these individuals is the development of acute hypoglycemia following exposure to fructose ingestion due to rapid uptake of glucose into the liver with the formation of glycogen. Recently, an aldolase-B KO (aldoB^−/−) mouse that has the clinical features of HFI in humans was developed. These mice develop immediate dose-dependent hypoglycemia in response to fructose, but also develop fatty liver within days of low grade fructose feeding.
The procedure used in Example 12 consisted of first fasting animals for six hours, followed by the administration of fructose by oral gavage (45 mg fructose, equivalent to 1.5 g/kg body weight) or vehicle (water) to mice and following serum glucose levels over 90 minutes by measuring glucose with a glucometer from tail snip bleeds. With vehicle administration serum glucose stays normal, but when fructose is administered to aldolase B knockout mice a progressive fall in serum glucose occurs, as noted by the percent (%) of the baseline level. […]

| SMILES | hypoglycemic response to fructose (serum glucose, % of baseline) |
| --- | --- |
| Cc1cccc(-n2ncc3ccc(NC(=O)C4CNC4)cc32)c1 [Compound C-25, N-(1-(m-tolyl)-1H-indazol-6-yl)azetidine-3-carboxamide] | hypoglycemic response was prevented |
